Measurements as given in patent publication US20220242874A1, “CAMPTOTHECIN DERIVATIVES” (SUN PHARMA ADVANCED RESEARCH COMPANY LIMITED, priority 2019, published 2022).
Structures can show the parent of a compound that is named as a salt. Where two headings read alike, the source gives them in different places. Values belong to the molecule of their own block, whether it stands above or below them.

What was measured:
[1] = test system: NCI H187 cells; test: In-vitro cancer cell growth inhibition assay (MTT); assay type: cell-based; settings: Homo sapiens
Description: The compounds of the present invention were evaluated for their ability to inhibit the growth of various cell line models of small cell lung cancer (SCLC), colon cancer, pancreatic cancer and triple negative breast cancer (TNBC) in-vitro. Details of the cell lines and their respective complete growth media are described in Table 3. The growth inhibition assay was carried out as described below. Briefly, cells in complete growth media were seeded in 96-well plates at appropriate cell densities (seeding density details described in Table 3) and incubated at 37° C., 5% CO2 (3-4 hours for NCI-H526, NCI-H69, NCI-H187 and overnight for the rest of the cells). Serial dilutions of test compound in DMSO were added to the cells while maintaining the final DMSO concentration of 0.4%-0.5% in the well. […] Subsequently, MTT (final concentration 0.5 mg/mL in media) was incubated with the cells at 37° C., 5% CO2 for 4-5 hours. The formazan crystals were dissolved overnight at 37° C., 5% CO2 using 100 μL extractant (10% SDS in 0.01N HCl) and quantified using absorbance at 570 nm with reference wavelength 630 nm. Growth inhibition was represented as percent decrease in absorbance compared to vehicle treated cells.

[2] = test system: MX-1 cells; test: In-vitro cancer cell growth inhibition assay (MTT); assay type: cell-based; settings: Homo sapiens, read-out: IC50 (nM) MX-1
Description: (§1) The compounds of the present invention were evaluated for their ability to inhibit the growth of various cell line models of small cell lung cancer (SCLC), colon cancer, pancreatic cancer and triple negative breast cancer (TNBC) in-vitro. Details of the cell lines and their respective complete growth media are described in Table 3. The growth inhibition assay was carried out as described below. Briefly, cells in complete growth media were seeded in 96-well plates at appropriate cell densities (seeding density details described in Table 3) and incubated at 37° C., 5% CO2 (3-4 hours for NCI-H526, NCI-H69, NCI-H187 and overnight for the rest of the cells). Serial dilutions of test compound in DMSO were added to the cells while maintaining the final DMSO concentration of 0.4%-0.5% in the well. Plates were incubated for 96-144 h (the exact duration for each assay is described in Table 3) at 37° C., 5% CO2. Subsequently, MTT (final concentration 0.5 mg/mL in media) was incubated with the cells at 37° C., 5% CO2 for 4-5 hours. The formazan crystals were dissolved overnight at 37° C., 5% CO2 using 100 μL extractant (10% SDS in 0.01N HCl) and quantified using absorbance at 570 nm with reference wavelength 630 nm. Growth inhibition was represented as percent decrease in absorbance compared to vehicle treated cells.

[3] = test system: MDA-MB-468 cells; test: In-vitro cancer cell growth inhibition assay (MTT); assay type: cell-based; settings: Homo sapiens, read-out: IC50 (nM) MDA-MB-468
Description: as §1

[4] = test system: NCI H526 cells; test: In-vitro cancer cell growth inhibition assay (MTT); assay type: cell-based; settings: Homo sapiens, NCI-H526, 96-144 h, read-out: IC50 (nM) NCI H526
Description: as §1

[5] = test system: HT-29 cells; test: In-vitro cancer cell growth inhibition assay (MTT); assay type: cell-based; settings: Homo sapiens, read-out: IC50 (nM) HT-29
Description: as §1

[6] = test system: MDA-MB-231 cells; test: In-vitro cancer cell growth inhibition assay (MTT); assay type: cell-based; settings: Homo sapiens, read-out: IC50 (nM) MDA-MB-231
Description: as §1

[7] = test system: PANC-1 cells; test: In-vitro cancer cell growth inhibition assay (MTT); assay type: cell-based; settings: Homo sapiens, read-out: IC50 (nM) PANC-1
Description: as §1

[8] = test system: NCI H69 cells; test: In-vitro cancer cell growth inhibition assay (MTT); assay type: cell-based; settings: Homo sapiens, read-out: IC50 (nM) NCI H69
Description: as §1

[9] = Buffer stability (phosphate buffer, 37° C., HPLC); assay type: physicochemical
Description: The representative compounds were first dissolved in a minimum quantity of DMSO in a volumetric flask and diluted up to the mark with diluent (water: acetonitrile 30:70). […] After the elapsed time, the buffer samples were diluted 4 times with acetonitrile and injected into an HPLC system. Quantification of representative compounds was done by HPLC.
HPLC method: Chromatographic separation was achieved on a Hypersil BDS C18 (100×4.6 mm, 5 μ) column using 25 mM KH2PO4 buffer (pH 7 with TEA): acetonitrile, 90:10 v/v as mobile phase-A and 25 mM KH2PO4 buffer (pH 7 with TEA): acetonitrile 30:70 v/v as mobile phase-B. The gradient started with initially 5% B to 45% B in 10 mins followed by 80% B in 22 mins and held up to 25 mins and then returned to initial conditions at 26 mins and continued up to 30 mins. The injection volume was kept 10 μL and the flow rate was kept at 1.0 mL/min. The UV-Vis Detector was set at 220 nm, the column oven was set at 37° C. and the sample cooler was set at […]. Total chromatographic runtime was 30 min.

[10] = Comparison of solubility in water; assay type: physicochemical
Text: Comparison of Solubility of Compound I.4 in Water with SN-38

[11] = In-vitro stability in mice tumor lysate; settings: for % Remaining in tumor lysate: spiked 2000 ng/mL, pH 5.5, 37° C.
Description: Aliquot of 100 μL were taken from stability samples in pre-labelled micro-centrifuge tubes. 5 μL of cetirizine working internal standard (5 μg/mL) was added to each tube and vortexed well. 1 mL acetonitrile was added to each tube and vortexed well and then centrifuge at 10000 RPM for 5 min at room temperature. The supernatant was collected in ria vials and evaporated to dryness under nitrogen stream. The samples were reconstituted in 1 mL of 0.1% formic acid in water: acetonitrile 30:70 v/v. The prepared samples were analyzed using LC-MS/MS method. Quantification was done against SN-38 standard, prepared at 2000 ng/mL concentration. SN-38 standard prepared by spiking 5 μL of SN-38 working standard to 95 μL of blank mice tumor homogenate to achieve 2000 ng/mL concentration and vortexed well and processed as described.
LC-MS/MS Method: Chromatographic separation was achieved on Inertsil C8-3 (50×4.6 mm, 5 μ) with a flow rate of 250 μL/min and an injection volume of 10 μL. The sample cooler was maintained at 10° C. The column oven temperature was set to 40° C. The mobile phase consisted of 0.1% formic acid in Milli Q water and acetonitrile in the ratio of 30:70 v/v, respectively. […] The overall chromatographic run time was 4.0 minutes.
Detection was performed by tandem mass spectrometry (TSQ Quantum, Discovery MAX, Thermo Electron Corporation) and peak areas were integrated using LCquan software version 2.9 QF1.
0 hr standard area was considered as 100% for calculation.

[12] = NCI-H187, read-out: IC50 (nM) NCI H187

Structure (SMILES): CCc1c2c(nc3ccc(O)cc13)-c1cc3c(c(=O)n1C2)COC(=O)[C@@]3(CC)OC(=O)OCCSSCCOC(=O)Nc1ccc(N2CCN(C)CC2)cc1.Cl [Compound I.2, 2-(2-{N-[4-(4-Methylpiperazin-1-yl)phenyl]carbamoyloxy}ethyldisulfanyl)ethyl [(4S)-4,11-diethyl-3,4,12,14-tetrahydro-9-hydroxy-1H-pyrano[3′,4′:6,7]indolizino[1,2-b]quinoline-3,14-(4H,12H)dione-4-yl] carbonate hydrochloride]
IC50 [1, 12]: 0.27 nM | IC50 ([2]; MX1, 144 h): 5.9 nM | IC50 ([3]; MDA-MB-468, 96 h): 6.6 nM | IC50 [4]: 1.58 nM | IC50 ([5]; HT-29, 96 h): 31 nM | IC50 ([6]; MDA-MB-231, 96 h): 112 nM | IC50 ([7]; PANC-1, 96 h): 508 nM | IC50 ([8]; NCI-H69, 144 h): 1.3 nM | % of Unconverted Compounds of Formula I ([9]; pH 4.7, 0 hr, 200 μg/ml): 100% | % of Unconverted Compounds of Formula I ([9]; pH 4.7, 2 hr, 200 μg/ml): 97.3% | % of Unconverted Compounds of Formula I ([9]; pH 4.7, 4 hr, 200 μg/ml): 100% | % of Unconverted Compounds of Formula I ([9]; pH 4.7, 6 hr, 200 μg/ml): 100% | % of Unconverted Compounds of Formula I ([9]; pH 4.7, 8 hr, 200 μg/ml): 100% | % of Unconverted Compounds of Formula I ([9]; pH 6.0, 0 hr, 200 μg/ml): 100% | % of Unconverted Compounds of Formula I ([9]; pH 6.0, 2 hr, 200 μg/ml): 95.5% | % of Unconverted Compounds of Formula I ([9]; pH 6.0, 4 hr, 200 μg/ml): 98.5% | % of Unconverted Compounds of Formula I ([9]; pH 6.0, 6 hr, 200 μg/ml): 100% | % of Unconverted Compounds of Formula I ([9]; pH 6.0, 8 hr, 200 μg/ml): 100% | % of Unconverted Compounds of Formula I ([9]; pH 7.4, 0 hr, 200 μg/ml): 100% | % of Unconverted Compounds of Formula I ([9]; pH 7.4, 2 hr, 200 μg/ml): 90.1% | % of Unconverted Compounds of Formula I ([9]; pH 7.4, 4 hr, 200 μg/ml): 93.5% | % of Unconverted Compounds of Formula I ([9]; pH 7.4, 6 hr, 200 μg/ml): 88.7% | % of Unconverted Compounds of Formula I ([9]; pH 7.4, 8 hr, 200 μg/ml): 91.6%

Structure (SMILES): CCc1c2c(nc3ccc(O)cc13)-c1cc3c(c(=O)n1C2)COC(=O)[C@@]3(CC)OC(=O)OCCSSCCOC(=O)N(C)c1ccc(N2CCN(C)CC2)cc1 [Compound I.4, 2-(2-{N-Methyl-N-[4-(4-methylpiperazin-1-yl)phenyl]carbamoyloxy}ethyldisulfanyl)ethyl [(4S)-4,11-diethyl-3,4,12,14-tetrahydro-9-hydroxy-1H-pyrano[3′,4′:6,7]indolizino[1,2-b]quinoline-3,14-(4H,12H)dione-4-yl] carbonate dihydrochloride]
Solubility in water [10]: Solubility: 100 mg/11 ml in water. | IC50 ([2]; MX1, 144 h): 6.9 nM | IC50 ([3]; MDA-MB-468, 96 h): 8.2 nM | IC50 ([6]; MDA-MB-231, 96 h): 129 nM | % Remaining in tumor lysate ([11]; 0 hr): 100.0% | % Remaining in tumor lysate ([11]; 1 hr): 0.0% | % Remaining in tumor lysate ([11]; 2 hr): 0.0% | % Remaining in tumor lysate ([11]; 4 hr): 0.0% | % Remaining in tumor lysate ([11]; 6 hr): 0.0% | % Remaining in tumor lysate ([11]; 8 hr): 0.0% | time after incubation until cleaved to give active SN-38 ([11]; tumor lysate, 37° C.): ≤ 1 h

Structure (SMILES): CCc1c2c(nc3ccc(O)cc13)-c1cc3c(c(=O)n1C2)COC(=O)[C@@]3(CC)OC(=O)OCCSSCCNC(=O)c1ccc(N2CCN(C)CC2)cc1 [Compound I.5, 2-(2-{4-[4-Methylpiperazin-1-yl]benzoylamino}ethyldisulfanyl) ethyl [(4S)-4,11-diethyl-3,4,12,14-tetrahydro-9-hydroxy-1H-pyrano[3′,4′:6,7]indolizino[1,2-b]quinoline-3,14-(4H,12H)dione-4-yl]carbonate dihydrochloride]
IC50 [1, 12]: 0.77 nM | IC50 ([2]; MX1, 144 h): 4.6 nM | IC50 ([3]; MDA-MB-468, 96 h): 9.3 nM | IC50 [4]: 2.06 nM | IC50 ([5]; HT-29, 96 h): 48.3 nM | IC50 ([6]; MDA-MB-231, 96 h): 119 nM | IC50 ([7]; PANC-1, 96 h): 910 nM | IC50 ([8]; NCI-H69, 144 h): 1.3 nM | % of Unconverted Compounds of Formula I ([9]; pH 4.7, 0 hr, 100 μg/ml (footnote *)): 100% | % of Unconverted Compounds of Formula I ([9]; pH 4.7, 2 hr, 100 μg/ml (footnote *)): 82.5% | % of Unconverted Compounds of Formula I ([9]; pH 4.7, 4 hr, 100 μg/ml (footnote *)): 86.3% | % of Unconverted Compounds of Formula I ([9]; pH 4.7, 6 hr, 100 μg/ml (footnote *)): 79.9% | % of Unconverted Compounds of Formula I ([9]; pH 4.7, 8 hr, 100 μg/ml (footnote *)): 77.2% | % of Unconverted Compounds of Formula I ([9]; pH 6.0, 0 hr, 100 μg/ml (footnote *)): 100% | % of Unconverted Compounds of Formula I ([9]; pH 6.0, 2 hr, 100 μg/ml (footnote *)): 94.1% | % of Unconverted Compounds of Formula I ([9]; pH 6.0, 4 hr, 100 μg/ml (footnote *)): 100% | % of Unconverted Compounds of Formula I ([9]; pH 6.0, 6 hr, 100 μg/ml (footnote *)): 100% | % of Unconverted Compounds of Formula I ([9]; pH 6.0, 8 hr, 100 μg/ml (footnote *)): 98.4% | % of Unconverted Compounds of Formula I ([9]; pH 7.4, 0 hr, 100 μg/ml (footnote *)): 100% | % of Unconverted Compounds of Formula I ([9]; pH 7.4, 2 hr, 100 μg/ml (footnote *)): 88.0% | % of Unconverted Compounds of Formula I ([9]; pH 7.4, 4 hr, 100 μg/ml (footnote *)): 82.8% | % of Unconverted Compounds of Formula I ([9]; pH 7.4, 6 hr, 100 μg/ml (footnote *)): 82.5% | % of Unconverted Compounds of Formula I ([9]; pH 7.4, 8 hr, 100 μg/ml (footnote *)): 82.4%

IC50 ([2]; MX1, MX-1, 144 hr, MTT): 5910 nM | IC50 ([3]; MDA-MB-468, 96 hr, MTT): 4580 nM | IC50 ([5]; HT-29, 96 hr, MTT): 14000 nM | IC50 ([6]; MDA-MB-231, 96 hr, MTT): 21700 nM | IC50 ([7]; PANC-1, 96 hr, MTT): 23000 nM
Structure (SMILES): CCc1c2c(nc3ccc(OC(=O)N4CCC(N5CCCCC5)CC4)cc13)-c1cc3c(c(=O)n1C2)COC(=O)[C@]3(O)CC [Irinotecan HCl trihydrate, reference compound]
IC50 ([1]; NCI-H187, MTT, read-out: IC50 (nM) NCI H187): 385 nM | IC50 ([4]; MTT): 750 nM | IC50 ([8]; NCI-H69, 144 hr, MTT): 473 nM
